Experiment [1] has as its target T1, Chymase (Homo sapiens, UniProt P23946).
T1 sequence (P23946 whole entry): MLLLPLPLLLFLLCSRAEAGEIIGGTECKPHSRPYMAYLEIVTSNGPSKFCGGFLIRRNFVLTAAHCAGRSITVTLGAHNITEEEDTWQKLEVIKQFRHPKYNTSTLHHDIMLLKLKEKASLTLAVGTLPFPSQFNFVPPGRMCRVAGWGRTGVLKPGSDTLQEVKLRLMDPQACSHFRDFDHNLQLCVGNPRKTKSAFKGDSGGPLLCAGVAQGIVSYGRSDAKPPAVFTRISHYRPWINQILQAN
Description: Compound was evaluated for its inhibitory activity against human Serine protease chymase.

Experiment [2] concerns the target T1, Chymase. Briefly: Compound was evaluated for its inhibitory activity against human chymase.

Where only a bound is given, the exact number is not on record here.

`COC(CCc1ccccc1)=C1C(=O)C=CC1=O` registered an IC50 on Chymase [1] of 40 µM.

At Chymase [1], `COC(/C=C/c1ccccc1)=C1C(=O)C(OC)=C(OC)C1=O` gave an IC50 of 30 µM. The IC50 values of the last two compounds are within 1.5-fold of each other.

With `COC(C)=C1C(=O)C=CC1=O`, on Chymase [2], the IC50 is greater than 1000 µM.

What is called IC50 is the midpoint of a concentration-inhibition curve.

These data come from ChEMBL document CHEMBL1134119, “Total synthesis of human chymase inhibitor methyllinderone and structure--activity relationships of its derivatives” (Bioorg Med Chem Lett, 2001).
